Laboratory results from ChEMBL document CHEMBL1148600, “Synthesis and in vivo validation of [O-methyl-11C]2-{4-[4-(7-methoxynaphthalen-1-yl)piperazin- 1-yl]butyl}-4-methyl-2H-[1,2,4]triazine-3,5-dione: a novel 5-HT1A receptor agonist positron emission tomography ligand” (J Med Chem, 2006).
pEC50, pKi: −log10 of the molar value.

Legend:
[1] = molecular target: T1, 5-hydroxytryptamine receptor 1A (Homo sapiens, UniProt P08908); test: Agonistic activity at human 5HT1A receptor by [35S]GTP-gamma-S binding; format: functional
T1 sequence (P08908 whole entry): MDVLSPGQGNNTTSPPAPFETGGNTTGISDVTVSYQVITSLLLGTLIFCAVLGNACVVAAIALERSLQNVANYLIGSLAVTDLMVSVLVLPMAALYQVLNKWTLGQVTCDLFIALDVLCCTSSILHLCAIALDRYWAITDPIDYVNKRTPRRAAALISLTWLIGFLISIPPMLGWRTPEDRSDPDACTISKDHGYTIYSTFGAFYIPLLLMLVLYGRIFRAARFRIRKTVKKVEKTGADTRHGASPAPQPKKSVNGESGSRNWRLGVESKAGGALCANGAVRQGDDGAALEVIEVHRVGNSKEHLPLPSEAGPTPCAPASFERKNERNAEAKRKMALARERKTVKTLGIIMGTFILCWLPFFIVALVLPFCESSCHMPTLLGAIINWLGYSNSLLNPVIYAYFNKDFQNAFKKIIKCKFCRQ

[2] = molecular target: T1, 5-hydroxytryptamine receptor 1A; test: Agonistic activity at human 5HT1A in CHO cells by the inhibition of forskolin-stimulated cAMP accumulation; format: functional, cell-based
[3] = molecular target: Alpha-2B adrenergic receptor (Homo sapiens, UniProt P18089); test: Binding affinity to adrenergic alpha-2B receptor
[4] = molecular target: Beta-3 adrenergic receptor (Homo sapiens, UniProt P13945); test: Binding affinity to adrenergic beta-3 receptor
[5] = Binding affinity to calcium channel
[6] = molecular target: Glutamate receptor ionotropic AMPA (Homo sapiens, UniProt P42261+P42262+P42263+P48058); test: Binding affinity to AMPA receptor; format: protein-complex assay
[7] = molecular target: Sodium-dependent noradrenaline transporter (Homo sapiens, UniProt P23975); test: Binding affinity to NET
[8] = Binding affinity to NK receptor
[9] = molecular target: Sigma non-opioid intracellular receptor 1 (Homo sapiens, UniProt Q99720); test: Binding affinity to sigma1 receptor
Chain of Sigma non-opioid intracellular receptor 1 (Q99720 whole entry): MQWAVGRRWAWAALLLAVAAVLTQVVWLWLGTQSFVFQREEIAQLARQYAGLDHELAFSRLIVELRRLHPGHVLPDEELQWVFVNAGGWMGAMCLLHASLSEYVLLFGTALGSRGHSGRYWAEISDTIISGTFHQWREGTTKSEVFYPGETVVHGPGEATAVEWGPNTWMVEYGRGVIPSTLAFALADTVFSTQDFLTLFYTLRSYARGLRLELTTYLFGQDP

[10] = molecular target: Synaptic vesicular amine transporter (Homo sapiens, UniProt Q05940); test: Binding affinity to VMAT2
Vasopressin V1 receptor = Vasopressin V1 receptor (Homo sapiens, UniProt P37288+P47901); test: Binding affinity to vasopressin 1 receptor; format: protein assay
Vasopressin V2 receptor = Vasopressin V2 receptor (Homo sapiens, UniProt P30518); test: Binding affinity to vasopressin 2 receptor
[11] = Binding affinity to sodium channel
Cannabinoid receptor 1 = Cannabinoid receptor 1 (Homo sapiens, UniProt P21554); test: Binding affinity to CB1 receptor
Cannabinoid receptor 2 = Cannabinoid receptor 2 (Homo sapiens, UniProt P34972); test: Binding affinity to CB2 receptor
Chain of Cannabinoid receptor 2 (P34972 whole entry): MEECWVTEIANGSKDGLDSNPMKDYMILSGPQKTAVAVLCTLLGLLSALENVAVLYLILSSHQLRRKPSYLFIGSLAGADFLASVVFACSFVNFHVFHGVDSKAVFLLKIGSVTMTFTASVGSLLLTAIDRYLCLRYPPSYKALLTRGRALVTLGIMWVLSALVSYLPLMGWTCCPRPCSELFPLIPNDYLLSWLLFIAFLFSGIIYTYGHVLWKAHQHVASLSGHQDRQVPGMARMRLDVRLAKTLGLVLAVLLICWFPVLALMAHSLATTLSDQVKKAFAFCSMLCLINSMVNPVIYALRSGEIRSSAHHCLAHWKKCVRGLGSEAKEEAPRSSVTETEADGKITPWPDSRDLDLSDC

D(1A) dopamine receptor = D(1A) dopamine receptor (Homo sapiens, UniProt P21728); test: Binding affinity to dopamine D1 receptor
D(2) dopamine receptor = D(2) dopamine receptor (Homo sapiens, UniProt P14416); test: Binding affinity to dopamine D2 receptor
D(3) dopamine receptor = D(3) dopamine receptor (Homo sapiens, UniProt P35462); test: Binding affinity to dopamine D3 receptor
Chain of D(3) dopamine receptor (P35462 whole entry): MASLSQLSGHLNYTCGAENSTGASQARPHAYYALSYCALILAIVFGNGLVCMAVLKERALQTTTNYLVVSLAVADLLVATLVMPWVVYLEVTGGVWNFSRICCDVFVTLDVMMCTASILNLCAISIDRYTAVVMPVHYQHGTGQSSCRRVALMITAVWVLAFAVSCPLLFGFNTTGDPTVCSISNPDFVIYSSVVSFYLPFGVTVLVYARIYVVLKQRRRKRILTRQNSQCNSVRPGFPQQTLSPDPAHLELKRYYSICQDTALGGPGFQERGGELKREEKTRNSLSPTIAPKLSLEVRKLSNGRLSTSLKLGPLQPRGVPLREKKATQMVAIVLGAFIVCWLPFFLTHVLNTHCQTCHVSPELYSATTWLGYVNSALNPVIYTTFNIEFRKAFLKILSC

D(4) dopamine receptor = D(4) dopamine receptor (Homo sapiens, UniProt P21917); test: Binding affinity to dopamine D4 receptor
D(1B) dopamine receptor = D(1B) dopamine receptor (Homo sapiens, UniProt P21918); test: Binding affinity to dopamine D5 receptor
Chain of D(1B) dopamine receptor (P21918 whole entry): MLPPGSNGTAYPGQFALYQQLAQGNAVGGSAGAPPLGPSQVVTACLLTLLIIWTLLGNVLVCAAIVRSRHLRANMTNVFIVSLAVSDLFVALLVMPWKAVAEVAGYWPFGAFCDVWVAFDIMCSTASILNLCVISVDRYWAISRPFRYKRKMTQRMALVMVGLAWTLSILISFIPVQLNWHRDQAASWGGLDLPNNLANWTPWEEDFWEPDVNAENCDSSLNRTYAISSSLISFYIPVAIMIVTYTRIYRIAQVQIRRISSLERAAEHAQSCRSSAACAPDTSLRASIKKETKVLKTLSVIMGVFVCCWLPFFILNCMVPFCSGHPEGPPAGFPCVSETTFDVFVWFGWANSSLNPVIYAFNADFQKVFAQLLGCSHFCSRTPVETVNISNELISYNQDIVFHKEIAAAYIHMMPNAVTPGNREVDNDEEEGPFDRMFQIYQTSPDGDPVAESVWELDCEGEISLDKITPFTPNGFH

[12] = molecular target: Sodium-dependent dopamine transporter (Homo sapiens, UniProt Q01959); test: Binding affinity to DAT
[13] = molecular target: Delta-type opioid receptor (Homo sapiens, UniProt P41143); test: Binding affinity to Delta opioid receptor
[14] = Binding affinity to prostanoid receptor
[15] = Binding affinity to GABA receptor
Histamine H1 receptor = Histamine H1 receptor (Homo sapiens, UniProt P35367); test: Binding affinity to histamine H1 receptor
Chain of Histamine H1 receptor (P35367 whole entry): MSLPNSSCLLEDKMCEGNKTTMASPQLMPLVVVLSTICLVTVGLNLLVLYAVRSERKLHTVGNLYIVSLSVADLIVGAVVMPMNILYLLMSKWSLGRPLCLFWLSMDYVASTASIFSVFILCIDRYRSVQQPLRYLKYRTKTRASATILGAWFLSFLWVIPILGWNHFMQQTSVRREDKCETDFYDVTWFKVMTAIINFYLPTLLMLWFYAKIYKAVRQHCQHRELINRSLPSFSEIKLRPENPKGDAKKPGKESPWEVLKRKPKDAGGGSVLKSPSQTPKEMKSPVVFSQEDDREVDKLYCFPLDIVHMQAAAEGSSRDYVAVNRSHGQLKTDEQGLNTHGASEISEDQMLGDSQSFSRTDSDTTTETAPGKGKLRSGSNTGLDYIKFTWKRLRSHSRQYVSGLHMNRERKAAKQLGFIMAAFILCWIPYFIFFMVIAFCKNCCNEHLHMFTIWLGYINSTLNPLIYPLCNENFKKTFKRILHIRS

Histamine H2 receptor = Histamine H2 receptor (Homo sapiens, UniProt P25021); test: Binding affinity to histamine H2 receptor
Histamine H3 receptor = Histamine H3 receptor (Homo sapiens, UniProt Q9Y5N1); test: Binding affinity to histamine H3 receptor
Histamine H4 receptor = Histamine H4 receptor (Homo sapiens, UniProt Q9H3N8); test: Binding affinity to histamine H4 receptor
Chain of Histamine H4 receptor (Q9H3N8 whole entry): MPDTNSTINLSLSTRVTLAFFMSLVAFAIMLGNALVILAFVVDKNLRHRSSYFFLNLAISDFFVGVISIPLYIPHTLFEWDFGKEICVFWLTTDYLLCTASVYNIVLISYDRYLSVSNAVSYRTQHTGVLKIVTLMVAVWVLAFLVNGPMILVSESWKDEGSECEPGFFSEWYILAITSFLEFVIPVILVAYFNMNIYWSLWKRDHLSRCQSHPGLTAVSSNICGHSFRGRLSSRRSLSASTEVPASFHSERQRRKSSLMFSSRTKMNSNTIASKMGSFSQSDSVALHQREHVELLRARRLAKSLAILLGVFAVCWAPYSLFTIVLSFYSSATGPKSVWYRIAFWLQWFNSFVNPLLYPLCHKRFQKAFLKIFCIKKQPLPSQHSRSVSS

[16] = molecular target: Voltage-gated inwardly rectifying potassium channel KCNH2 (Homo sapiens, UniProt Q12809); test: Binding affinity to hERG
Chain of Voltage-gated inwardly rectifying potassium channel KCNH2 (Q12809 whole entry): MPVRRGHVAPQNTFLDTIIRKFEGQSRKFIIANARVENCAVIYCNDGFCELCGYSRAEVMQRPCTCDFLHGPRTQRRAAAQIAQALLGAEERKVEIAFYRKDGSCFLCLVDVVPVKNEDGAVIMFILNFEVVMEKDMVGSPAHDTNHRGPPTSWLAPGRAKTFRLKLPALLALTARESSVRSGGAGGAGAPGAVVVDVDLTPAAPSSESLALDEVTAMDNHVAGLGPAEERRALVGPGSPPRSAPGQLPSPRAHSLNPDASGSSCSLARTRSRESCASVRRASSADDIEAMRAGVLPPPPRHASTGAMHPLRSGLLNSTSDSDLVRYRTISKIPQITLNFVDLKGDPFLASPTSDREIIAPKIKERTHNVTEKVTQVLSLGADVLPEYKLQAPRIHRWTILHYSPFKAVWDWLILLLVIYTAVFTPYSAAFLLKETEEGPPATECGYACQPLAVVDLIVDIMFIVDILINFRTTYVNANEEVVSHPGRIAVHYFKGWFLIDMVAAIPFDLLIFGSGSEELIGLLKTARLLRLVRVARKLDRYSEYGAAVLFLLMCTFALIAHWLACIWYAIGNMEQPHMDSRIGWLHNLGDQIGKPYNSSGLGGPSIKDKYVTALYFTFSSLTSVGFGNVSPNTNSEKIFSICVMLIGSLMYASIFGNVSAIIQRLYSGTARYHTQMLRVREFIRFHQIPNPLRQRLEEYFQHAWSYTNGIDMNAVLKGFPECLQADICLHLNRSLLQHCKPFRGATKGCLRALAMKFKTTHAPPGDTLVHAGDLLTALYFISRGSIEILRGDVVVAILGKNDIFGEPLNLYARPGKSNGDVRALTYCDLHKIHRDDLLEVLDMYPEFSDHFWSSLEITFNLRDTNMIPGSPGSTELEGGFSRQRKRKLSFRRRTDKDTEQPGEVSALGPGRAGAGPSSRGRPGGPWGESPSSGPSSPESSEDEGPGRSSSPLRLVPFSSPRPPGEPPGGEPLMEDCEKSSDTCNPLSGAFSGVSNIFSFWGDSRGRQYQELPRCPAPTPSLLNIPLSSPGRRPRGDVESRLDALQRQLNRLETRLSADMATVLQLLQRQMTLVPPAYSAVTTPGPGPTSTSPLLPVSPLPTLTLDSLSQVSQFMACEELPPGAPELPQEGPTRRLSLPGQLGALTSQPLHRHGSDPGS

[17] = molecular target: Kappa-type opioid receptor (Homo sapiens, UniProt P41145); test: Binding affinity to kappa opioid receptor
[18] = molecular target: Muscarinic acetylcholine receptor; test: Binding affinity to muscarinic receptor; format: protein assay
[19] = molecular target: ATP-dependent translocase ABCB1 (Homo sapiens, UniProt P08183); test: Binding affinity to MDR1
Mu-type opioid receptor = Mu-type opioid receptor (Homo sapiens, UniProt P35372); test: Binding affinity to mu opioid receptor
[20] = Binding affinity to mGluR
[21] = molecular target: Glutamate [NMDA] receptor; test: Binding affinity to NMDA receptor; format: protein-complex assay
[22] = molecular target: Sodium-dependent serotonin transporter (Homo sapiens, UniProt P31645); test: Binding affinity to SERT
Sigma 2 receptor = test: Binding affinity to sigma2 receptor
[23] = molecular target: Chromaffin granule amine transporter (Homo sapiens, UniProt P54219); test: Binding affinity to VMAT1
[24] = molecular target: Tumor necrosis factor receptor superfamily member 16 (Homo sapiens, UniProt P08138); test: Binding affinity to neurotrophin receptor
Chain of Tumor necrosis factor receptor superfamily member 16 (P08138 whole entry): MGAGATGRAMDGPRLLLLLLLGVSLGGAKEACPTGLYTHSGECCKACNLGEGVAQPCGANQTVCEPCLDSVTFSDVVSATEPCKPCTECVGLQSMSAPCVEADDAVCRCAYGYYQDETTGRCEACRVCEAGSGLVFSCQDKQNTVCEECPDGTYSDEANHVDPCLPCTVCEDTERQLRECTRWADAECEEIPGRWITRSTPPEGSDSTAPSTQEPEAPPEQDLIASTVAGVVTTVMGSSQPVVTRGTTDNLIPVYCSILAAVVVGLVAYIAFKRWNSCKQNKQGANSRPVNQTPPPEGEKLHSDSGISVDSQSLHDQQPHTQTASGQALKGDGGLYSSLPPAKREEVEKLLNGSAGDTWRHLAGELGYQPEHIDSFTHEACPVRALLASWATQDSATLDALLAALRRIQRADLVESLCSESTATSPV

[25] = Binding affinity to imidazoline receptor
[26] = molecular target: Beta-1 adrenergic receptor (Homo sapiens, UniProt P08588); test: Binding affinity to adrenergic beta-1 receptor
[27] = molecular target: 5-hydroxytryptamine receptor 5A (Homo sapiens, UniProt P47898); test: Binding affinity to human 5HT5A receptor
[28] = molecular target: 5-hydroxytryptamine receptor 6 (Homo sapiens, UniProt P50406); test: Binding affinity to human 5HT6 receptor
[29] = molecular target: 5-hydroxytryptamine receptor 7 (Homo sapiens, UniProt P34969); test: Binding affinity to human 5HT7 receptor
Adenosine A2 receptor = Adenosine A2 receptor (Homo sapiens, UniProt P29275+P29274); test: Binding affinity to adenosine A2 receptor; format: protein assay
Adenosine receptor A3 = Adenosine receptor A3 (Homo sapiens, UniProt P0DMS8); test: Binding affinity to adenosine A3 receptor
Adenosine receptor A2a = Adenosine receptor A2a (Homo sapiens, UniProt P29274); test: Binding affinity to adenosine […] receptor
[30] = molecular target: Adrenergic receptor alpha-1 (Homo sapiens, UniProt P35348+P25100+P35368); test: Binding affinity to adrenergic alpha-1 receptor; format: protein assay
[31] = molecular target: Alpha-2A adrenergic receptor (Homo sapiens, UniProt P08913); test: Binding affinity to adrenergic alpha-2A receptor
[32] = molecular target: Alpha-2C adrenergic receptor (Homo sapiens, UniProt P18825); test: Binding affinity to adrenergic alpha-2C receptor
[33] = molecular target: T1, 5-hydroxytryptamine receptor 1A; test: Displacement of [3H]8-OH-DPAT from human 5HT1A receptor expressed in CHO cells; format: cell-based
[34] = molecular target: 5-hydroxytryptamine receptor 2A (Homo sapiens, UniProt P28223); test: Binding affinity to human 5HT2A receptor
Chain of 5-hydroxytryptamine receptor 2A (P28223 whole entry): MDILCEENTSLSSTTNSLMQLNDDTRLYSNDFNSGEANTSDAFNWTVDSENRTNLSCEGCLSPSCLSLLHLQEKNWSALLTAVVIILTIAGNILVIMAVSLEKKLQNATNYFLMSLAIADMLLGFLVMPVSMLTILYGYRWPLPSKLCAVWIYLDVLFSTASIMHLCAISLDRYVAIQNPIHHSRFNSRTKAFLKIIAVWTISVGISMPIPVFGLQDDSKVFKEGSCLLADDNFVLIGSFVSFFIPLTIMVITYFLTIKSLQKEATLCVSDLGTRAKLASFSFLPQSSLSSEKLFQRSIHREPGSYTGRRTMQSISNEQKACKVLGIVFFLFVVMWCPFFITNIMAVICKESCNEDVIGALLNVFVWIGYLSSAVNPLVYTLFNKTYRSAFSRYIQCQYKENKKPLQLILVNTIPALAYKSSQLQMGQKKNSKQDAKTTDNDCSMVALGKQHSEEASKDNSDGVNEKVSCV

[35] = molecular target: 5-hydroxytryptamine receptor 2C (Homo sapiens, UniProt P28335); test: Binding affinity to human 5HT2C receptor
Chain of 5-hydroxytryptamine receptor 2C (P28335 whole entry): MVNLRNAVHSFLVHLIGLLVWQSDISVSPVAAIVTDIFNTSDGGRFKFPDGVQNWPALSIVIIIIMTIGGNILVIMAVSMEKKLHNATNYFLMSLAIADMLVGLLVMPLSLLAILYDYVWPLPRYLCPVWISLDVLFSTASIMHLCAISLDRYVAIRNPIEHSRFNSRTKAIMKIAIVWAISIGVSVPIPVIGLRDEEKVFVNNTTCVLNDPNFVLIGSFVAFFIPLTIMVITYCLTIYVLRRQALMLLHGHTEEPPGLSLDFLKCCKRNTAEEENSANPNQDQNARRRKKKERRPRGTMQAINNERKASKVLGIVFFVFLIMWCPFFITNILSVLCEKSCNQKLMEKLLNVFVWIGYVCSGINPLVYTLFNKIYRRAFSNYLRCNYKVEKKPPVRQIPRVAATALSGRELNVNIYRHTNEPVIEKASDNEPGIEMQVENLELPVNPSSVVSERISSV

[36] = molecular target: Serotonin 3 (5-HT3) receptor; test: Binding affinity to human 5HT3 receptor; format: protein-complex assay
[37] = molecular target: Beta-2 adrenergic receptor (Homo sapiens, UniProt P07550)

Cn1c(=O)cnn(CCCCN2CCN(c3cccc4ccc(O[11CH3])cc34)CC2)c1=O
pEC50 [1]: 10.30 | pEC50 [2]: 11.00 | pKi [3]: 6.50 | pKi [4]: < 5.00 | pKi [5]: < 5.00 | pKi [6]: < 5.00 | pKi [7]: 5.16 | pKi [8]: < 5.00 | pKi [9]: 6.32 | pKi [10]: < 5.00 | Ki (Vasopressin V1 receptor): > 10000 nM | pKi (Vasopressin V2 receptor): < 5.00 | pKi [11]: < 5.00 | pKi (Cannabinoid receptor 1): < 5.00 | pKi (Cannabinoid receptor 2): < 5.00 | pKi (D(1A) dopamine receptor): 5.13 | pKi (D(2) dopamine receptor): 7.66 | pKi (D(3) dopamine receptor): 7.20 | pKi (D(4) dopamine receptor): 8.07 | pKi (D(1B) dopamine receptor): < 5.00 | pKi [12]: 6.39 | pKi [13]: < 5.00 | pKi [14]: < 5.00 | pKi [15]: < 5.00 | pKi (Histamine H1 receptor): 6.82 | pKi (Histamine H2 receptor): 6.52 | pKi (Histamine H3 receptor): < 5.00 | pKi (Histamine H4 receptor): < 5.00 | pKi [16]: < 5.00 | pKi [17]: < 5.00 | Ki [18]: > 10000 nM | pKi [19]: < 5.00 | pKi (Mu-type opioid receptor): < 5.00 | pKi [20]: < 5.00 | pKi [21]: < 5.00 | pKi [22]: 5.21 | pKi (Sigma 2 receptor): < 5.00 | pKi [23]: < 5.00 | pKi [24]: < 5.00 | pKi [25]: < 5.00 | pKi [26]: 6.32 | pKi [27]: 6.64 | pKi [28]: 6.92 | pKi [29]: 8.04 | Ki (Adenosine A2 receptor): > 10000 nM | pKi (Adenosine receptor A3): < 5.00 | pKi (Adenosine receptor A2a): < 5.00 | Ki [30]: 32.2 nM | pKi [31]: 5.99 | pKi [32]: 7.63 | pKi [33]: 8.87 | pKi [34]: 7.38 | pKi [35]: 7.00 | pKi [36]: < 5.00 | pKi [37]: 7.22
